Experimental findings from US7427626B2, “2-Anilino-4-(imidazol-5-yl)-pyrimidine derivatives and their use as cdk (cdk2) inhibitors” (AstraZeneca AB, priority 2003, dated 2008) are described below.

The target in the test is T1, CDK2/Cyclin E (Homo sapiens, UniProt P24941).
T1 construct: The open reading frames of CDK2 and Cyclin E were isolated; made in house; host or cells: Spodoptera frugiperda SF21 insect cells with baculovirus co-infection (CDK2 and cyclin E); E. coli BL21 (DE3) pLysS (GST-Rb substrate)
The experiment in a line: in vitro kinase assay, Scintillation Proximity Assay, incorporation of [γ-33-P]-ATP into GST-Rb. The format is biochemical. The conditions noted are these: CDK2/Cyclin E partially-purified enzyme, GST-Rb substrate, 0.2 μM ATP, 60 minutes at room temperature. The procedure:
The compounds were tested in an in vitro kinase assay in 96 well format using Scintillation Proximity Assay (SPA—obtained from Amersham) for measuring incorporation of [γ-33-P]-Adenosine Triphosphate into a test substrate (GST-Retinoblastoma protein; GST-Rb). In each well was placed the compound to be tested (diluted in DMSO and water to correct concentrations) and in control wells either roscovitine as an inhibitor control or DMSO as a […] control.
Approximately 0.2 μl of CDK2/Cyclin E partially-purified enzyme (amount dependent on enzyme activity) diluted in 25 μl incubation buffer was added to each well then 20 μl of GST-Rb/ATP/ATP33 mixture (containing 0.5 μg GST-Rb and 0.2 μM ATP and 0.14 μCi [γ-33-P]-Adenosine Triphosphate in incubation buffer), and the resulting mixture shaken gently, then incubated at room temperature for 60 minutes.
To each well was then added 150 μL stop solution containing (0.8 mg/well of Protein A-PVT SPA bead (Amersham)), 20 pM/well of Anti-Glutathione Transferase, Rabbit IgG (obtained from Molecular Probes), 61 mM EDTA and 50 mM HEPES pH 7.5 containing 0.05% sodium azide.
The plates were sealed with Topseal-S plate sealers, left for two hours then spun at 2500 rpm, 1124 xg., for 5 minutes. The plates were read on a Topcount for 30 seconds per well. […]
E. coli paste was resuspended in 10 ml/g of NETN buffer (50 mM Tris pH 7.5, 120 mM NaCl, 1 mM EDTA, 0.5% v/v NP-40, 1 mM PMSF, 1 ug/ml leupeptin, 1 μg/ml aprotinin and 1 ug/ml pepstatin) and sonicated for 2×45 seconds per 100 ml homogenate. […] The final product was analysed by Sodium Dodeca Sulfate (SDS) PAGE (Polyacrylamide gel) using 8-16% Tris-Glycine gels (Novex, San Diego, USA).
The open reading frames of CDK2 and Cyclin E were isolated by reverse transcriptase-PCR using HeLa cell and activated T cell mRNA as a template and cloned into the insect expression vector pVL1393 (obtained from Invitrogen 1995 catalogue number: V1392-20). […]
The compound `CC(C)n1c(-c2ccnc(Nc3ccccc3)n2)cnc1C(=O)c1ccncc1` [Example 8, 2-Anilino-4-[2-(pyridin-4-ylcarbonyl)-1-isopropylimidazol-5-yl]pyrimidine] displayed an IC50 of 4 nM.
To `CC(C)n1c(-c2ccnc(Nc3ccccc3)n2)cnc1C(=O)CCc1ccccc1` [Example 9, 2-Anilino-4-[2-(3-phenylpropionyl)-1-isopropylimidazol-5-yl]pyrimidine] belongs 64 nM; to `CC(C)n1c(-c2ccnc(Nc3ccccc3)n2)cnc1C(=O)c1ccccc1` [Example 6, 2-Anilino4(2-benzoyl-1-isopropylimidazol-5-yl)pyrimidine], 65 nM.
